From EP3436445B1, “HISTONE DEMETHYLASE INHIBITORS” (Celgene Quanticel Research, Inc., priority 2016, dated 2017)

What was measured:
JMJD3 = target: T1, JMJD3 (Homo sapiens, UniProt O15054); experiment: JMJD3 in vitro enzyme inhibition assay (AlphaScreen); format: biochemical; settings: Table 5; 1 nM JMJD3, H3K27me3-biotin labeled peptide
T1 construct: purchased BPS Bioscience 50115
Text: This assay determines the ability of a test compound to inhibit Jarid1B, JMJD2C and JMJD3 demethylase activity. Baculovirus expressed Jarid1B (GenBank Accession #NM-006618, AA 2-751) was purchased from BPS Bioscience (Cat #50121) or custom made by MolecularThroughput. Baculovirus expressed JMJD2C (GenBank Accession #BC143571, AA 2-372) was purchased from BPS Bioscience (Cat#50105). Baculovirus expressed JMJD3 (GenBank Accession #NM-001080424, AA1043-end) was purchased from BPS Bioscience (Cat#50115).
The ability of test compounds to inhibit the activity of JMJD3 was determined in 384-well plate format under the following reaction conditions: 1 nM JMJD3, 250 nM H3K27me3-biotin labeled peptide (Anaspec cat # 64367), 1 µM alpha-ketoglutaric acid in assay buffer of 50 mM HEPES, pH7.3, 0.005% Brij35, 0.5 mM TCEP, 0.2 mg/ml BSA, 50 µM sodium L-ascorbate, 5 µM ammonium iron(II) sulfate. Reaction product is determined quantitatively by AlphaScreen detection after the addition of detection reagents anti-H3K27me1 antibody, 5 µg/ml AlphaScreen® Streptavidin-coated Donor beads, and 5 µg/ml AlphaScreen® Protein A Acceptor beads in 50 mM HEPES, pH7.3, 10 mM NaCl, 0.005% Brij35, 10 mM EDTA, 2 mg/ml BSA.
The assay reaction was initiated by the following: 3 µl of the mixture of 750 nM H3K27me3-biotin labeled peptide and 3 µM alpha-ketoglutaric acid with 3 µl of 11-point serial diluted inhibitor in 3% DMSO are added to each well of 384 well Proxiplate (Perkin Elmer), followed by the addition of 3 µl of 3 nM JMJD3 to initiate the reaction. The reaction mixture is incubated at room temperature for 20 minutes, and terminated by the addition of 3 µl of appropriate dilution of anti H3K27me1 antibody in 50 mM HEPES, pH7.3, 10 mM NaCl, 0.005% Brij35, 10 mM EDTA, 2 mg/ml BSA. Plates will then incubated at room temperature for 1 hour, followed by addition of 3 µl of 25 µg/ml AlphaScreen® Streptavidin-coated Donor beads and AlphaScreen® Protein A Acceptor beads in 50 mM HEPES, pH7.3, 10 mM NaCl, 0.005% Brij35, 10 mM EDTA, 2 mg/ml BSA. Plates will then be read by EnVision Multilabel Reader in AlphaScreen mode after minimum 2 hour incubation at room temperature. The AlphaScreen signal for each well is used to determine inhibition constant (IC50).

FBXL10 = target: T2, FBXL10 (Homo sapiens, UniProt Q8NHM5); experiment: FBXL10 in vitro enzyme inhibition assay (AlphaScreen); format: biochemical; settings: Table 5
T2 construct: purchased BPS Bioscience 50120
T2 sequence (Q8NHM5 1-650): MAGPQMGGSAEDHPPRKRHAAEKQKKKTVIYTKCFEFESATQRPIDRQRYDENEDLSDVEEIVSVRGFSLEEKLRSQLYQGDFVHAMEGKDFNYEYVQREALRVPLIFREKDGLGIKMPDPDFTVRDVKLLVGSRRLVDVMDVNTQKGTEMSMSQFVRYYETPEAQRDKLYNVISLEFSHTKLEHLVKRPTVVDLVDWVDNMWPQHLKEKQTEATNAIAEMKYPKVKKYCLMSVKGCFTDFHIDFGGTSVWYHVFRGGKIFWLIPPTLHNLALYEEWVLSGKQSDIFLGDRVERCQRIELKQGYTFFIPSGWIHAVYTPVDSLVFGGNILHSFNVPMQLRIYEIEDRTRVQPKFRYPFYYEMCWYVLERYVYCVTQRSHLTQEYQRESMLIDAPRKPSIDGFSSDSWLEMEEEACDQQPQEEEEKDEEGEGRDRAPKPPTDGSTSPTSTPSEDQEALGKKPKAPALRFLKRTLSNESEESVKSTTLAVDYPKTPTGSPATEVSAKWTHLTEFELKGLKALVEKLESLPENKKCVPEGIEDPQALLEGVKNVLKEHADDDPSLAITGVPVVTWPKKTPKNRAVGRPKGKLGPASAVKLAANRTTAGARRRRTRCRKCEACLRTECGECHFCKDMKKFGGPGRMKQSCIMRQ
Text: This assay determines the ability of a test compound to inhibit FBXL11, FBXL10, and PHF8 demethylase activity. Baculovirus expressed FBXL11 (GenBank Accession #NM_012308, AA1-1162) was purchased from BPS Bioscience (Cat#50102). Baculovirus expressed FBXL10 (GenBank Accession #NM_032590, AA 1-650) was purchased from BPS Bioscience (Cat #50120). Baculovirus expressed PHF8 (GenBank Accession NP_055922.1) was purchased from Active Motif (Cat#31435).
The ability of test compounds to inhibit the activity of FBXL10 was determined in 384-well plate format under the following reaction conditions: 0.3 nM FBXL10, 30 nM H3K36me2-biotin labeled peptide (Anaspec cat # 64442), 0.2 µM alpha-ketoglutaric acid in assay buffer of 50 mM HEPES, pH7.3, 0.005% Brij35, 0.5 mM TCEP, 0.2 mg/ml BSA, 50 µM sodium L-ascorbate, 5 µM ammonium iron(II) sulfate. Reaction product is determined quantitatively by AlphaScreen detection after the addition of detection reagents anti-H3K36me1 antibody, AlphaScreen® Streptavidin-coated Donor beads, and AlphaScreen® Protein A Acceptor beads in 50 mM HEPES, pH7.3, 10 mM NaCl, 0.005% Brij35, 5 mM EDTA, 2 mg/ml BSA to final 10 µg/ml beads.
The assay reaction was initiated by the following: 3 µl of the mixture of 90 nM H3K36me2-biotin labeled peptide and 0.6 µM alpha-ketoglutaric acid with 3 µl of 11-point serial diluted inhibitor in 3% DMSO are added to each well of 384 well Proxiplate (Perkin Elmer), followed by the addition of 3 µl of 0.9 nM FBXL10 to initiate the reaction. The reaction mixture is incubated at room temperature for 1 hour, and terminated by the addition of 3 µl of appropriate dilution of anti H3K36me1 antibody in 50 mM HEPES, pH7.3, 10 mM NaCl, 0.005% Brij35, 5 mM EDTA, 2 mg/ml BSA. Plates will then incubated at room temperature for 40 minutes, followed by addition of 3 µl of 50 µg/ml AlphaScreen® Streptavidin-coated Donor beads and AlphaScreen® Protein A Acceptor beads in 50 mM HEPES, pH7.3, 10 mM NaCl, 0.005% Brij35, 5 mM EDTA, 2 mg/ml BSA. Plates will then be read by EnVision Multilabel Reader in AlphaScreen mode after minimum 2 hour incubation at room temperature. The AlphaScreen signal for each well is used to determine inhibition constant (IC50).

T1 sequence (O15054 1043-1682 isoform O15054-1): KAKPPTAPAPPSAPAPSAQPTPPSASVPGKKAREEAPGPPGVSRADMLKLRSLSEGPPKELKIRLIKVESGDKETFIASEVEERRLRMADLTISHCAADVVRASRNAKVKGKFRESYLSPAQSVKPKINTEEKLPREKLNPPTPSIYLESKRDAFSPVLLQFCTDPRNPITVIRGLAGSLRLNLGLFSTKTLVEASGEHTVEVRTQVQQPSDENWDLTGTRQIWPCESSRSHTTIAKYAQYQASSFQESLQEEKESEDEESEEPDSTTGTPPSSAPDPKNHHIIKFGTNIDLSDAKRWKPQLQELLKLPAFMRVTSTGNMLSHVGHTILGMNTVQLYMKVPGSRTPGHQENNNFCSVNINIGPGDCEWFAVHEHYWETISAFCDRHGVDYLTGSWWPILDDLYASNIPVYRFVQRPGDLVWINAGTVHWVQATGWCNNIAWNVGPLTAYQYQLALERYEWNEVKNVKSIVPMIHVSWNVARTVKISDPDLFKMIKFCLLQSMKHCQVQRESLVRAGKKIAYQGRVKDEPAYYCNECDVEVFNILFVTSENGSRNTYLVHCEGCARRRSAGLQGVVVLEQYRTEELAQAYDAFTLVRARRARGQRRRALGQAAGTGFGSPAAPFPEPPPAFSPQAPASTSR

Compound	IC50 (JMJD3)	IC50 (FBXL10)
O=C(c1ccccc1)N1CCC[C@@H](n2cnc(-c3cc(-c4nn[nH]c4C(F)(F)F)ccn3)c2)C1 [Example 89, 2-{1-[(3R)-1-benzoylpiperidin-3-yl]-1H-imidazol-4-yl}-4-[5-(trifluoromethyl)-1H-1,2,3-triazol-4-yl]pyridine]	> 10000 nM	≤ 100 nM
CC(C)(C)c1ccc(CCn2cnc(-c3cc(-c4nn[nH]c4C(F)(F)F)ccn3)c2)cc1 [Example 96, 2-{1-[2-(4-tert-butylphenyl)ethyl]-1H-imidazol-4-yl}-4-[5-(trifluoromethyl)-1H-1,2,3-triazol-4-yl]pyridine]	> 10000 nM	100 to 1000 nM
Fc1cccc(F)c1CCn1cnc(-c2cc(-c3nn[nH]c3C(F)(F)F)ccn2)c1 [Example 87, 2-{1-[2-(2,6-difluorophenyl)ethyl]-1H-imidazol-4-yl}-4-[5-(trifluoromethyl)-1H-1,2,3-triazol-4-yl]pyridine]	> 10000 nM	≤ 100 nM
Fc1cc(F)c(CCn2cnc(-c3cc(-c4nn[nH]c4C(F)(F)F)ccn3)c2)c(F)c1 [Example 82, 4-[5-(trifluoromethyl)-1H-1,2,3-triazol-4-yl]-2-{1-[2-(2,4,6-trifluorophenyl)ethyl]-1H-imidazol-4-yl}pyridine]	> 10000 nM	≤ 100 nM
FC(F)(F)c1[nH]nnc1-c1ccnc(-c2cn(CCc3ccc(Cl)cc3)cn2)c1 [Example 92, 2-{1-[2-(4-chlorophenyl)ethyl]-1H-imidazol-4-yl}-4-[5-(trifluoromethyl)-1H-1,2,3-triazol-4-yl]pyridine]	> 10000 nM	≤ 100 nM
Cc1cc(F)ccc1Cn1cnc(-c2cc(-c3nn[nH]c3C(F)(F)F)ccn2)c1 [Example 70, 2-{1-[(4-fluoro-2-methylphenyl)methyl]-1H-imidazol-4-yl}-4-[5-(trifluoromethyl)-1H-1,2,3-triazol-4-yl]pyridine]	> 10000 nM	≤ 100 nM
FC(F)(F)c1ccc(CCn2cnc(-c3cc(-c4nn[nH]c4C(F)(F)F)ccn3)c2)cc1 [Example 94, 4-[5-(trifluoromethyl)-1H-1,2,3-triazol-4-yl]-2-(1-{2-[4-(trifluoromethyl)phenyl]ethyl}-1H-imidazol-4-yl)pyridine]	> 10000 nM	100 to 1000 nM
FC(F)(F)COc1ccccc1Cn1cnc(-c2cc(-c3nn[nH]c3C(F)(F)F)ccn2)c1 [Example 76, 2-(1-{[2-(2,2,2-trifluoroethoxy)phenyl]methyl}-1H-imidazol-4-yl)-4-[5-(trifluoromethyl)-1H-1,2,3-triazol-4-yl]pyridine]	> 10000 nM	100 to 1000 nM
Fc1cccc(CCn2cnc(-c3cc(-c4nn[nH]c4C(F)(F)F)ccn3)c2)c1 [Example 78, 2-{1-[2-(3-fluorophenyl)ethyl]-1H-imidazol-4-yl}-4-[5-(trifluoromethyl)-1H-1,2,3-triazol-4-yl]pyridine]	1000 to 10000 nM	≤ 100 nM
CCOc1ccccc1CCn1cnc(-c2cc(-c3nn[nH]c3C(F)(F)F)ccn2)c1 [Example 59]	> 10000 nM	100 to 1000 nM
Cc1ccc(CCn2cnc(-c3cc(-c4nn[nH]c4C(F)(F)F)ccn3)c2)cc1 [Example 91, 2-{1-[2-(4-methylphenyl)ethyl]-1H-imidazol-4-yl}-4-[5-(trifluoromethyl)-1H-1,2,3-triazol-4-yl]pyridine]	> 10000 nM	≤ 100 nM
Fc1ccc2c(c1)CCCC2Cn1cnc(-c2cc(-c3nn[nH]c3C(F)(F)F)ccn2)c1 (stereo not drawn) [Example 100, 2-{1-[(6-fluoro-1,2,3,4-tetrahydronaphthalen-1-yl)methyl]-1H-imidazol-4-yl}-4-[5-(trifluoromethyl)-1H-1,2,3-triazol-4-yl]pyridine]	> 10000 nM	100 to 1000 nM
Fc1ccccc1Cn1cnc(-c2cc(-c3nn[nH]c3C(F)(F)F)ccn2)c1 [Example 62, 2-{1-[(2-fluoroprtenyl)methyl]-1H-imidazol-4-yl}-4-[5-(trifluoromethyl)-1H-1,2,3-triazol-4-yl]pyridine]	> 10000 nM	≤ 100 nM
FC(F)(F)c1[nH]nnc1-c1ccnc(-c2cn(CC3CCOc4ccccc43)cn2)c1 (stereo not drawn) [Example 98, 2-{1-[(3,4-dihydro-2H-1-benzopyran-4-yl)methyl]-1H-imidazol-4-yl}-4-[5-(trifluoromethyl)-1H-1,2,3-triazol-4-yl]pyridine]	> 10000 nM	≤ 100 nM
Fc1cccc(F)c1Cn1cnc(-c2cc(-c3nn[nH]c3C(F)(F)F)ccn2)c1 [Example 69, 2-{1-[(2,6-difluorophenyl)methyl]-1H-imidazol-4-yl}-4-[5-(trifluoromethyl)-1H-1,2,3-triazol-4-yl]pyridine]	> 10000 nM	≤ 100 nM
FC(F)(F)c1[nH]nnc1-c1ccnc(-c2cn(Cc3ccc(Cl)cc3)cn2)c1 [Example 63, 2-{1-[(4-chlorophenyl)methyl]-1H-imidazol-4-yl}-4-[5-(trifluoromethyl)-1H-1,2,3-triazol-4-yl]pyridine]	> 10000 nM	≤ 100 nM
FC(F)(F)c1[nH]nnc1-c1ccnc(-c2cn(Cc3ccccc3Cl)cn2)c1 [Example 64, 2-{1-[(2-chlorophenyl)methyl]-1H-imidazol-4-yl}-4-[5-(trifluoromethyl)-1H-1,2,3-triazol-4-yl]pyridine]	> 10000 nM	≤ 100 nM
COc1ccc(Cn2cnc(-c3cc(-c4nn[nH]c4C(F)(F)F)ccn3)c2)cc1 [Example 67, 2-{1-[(4-methoxyphenyl)methyl]-1H-imidazol-4-yl}-4-[5-(trifluoromethyl)-1H-1,2,3-triazol-4-yl]pyridine]	> 10000 nM	≤ 100 nM
